Experimental data published in patent US20250221410A1, “SUBSTITUTED 2-C-AZINES AND SALTS THEREOF, AND USE THEREOF AS HERBICIDAL ACTIVE SUBSTANCES” (BAYER AKTIENGESELLSCHAFT, priority 2022, published 2025).

Key:
Format in all cases: in vivo
[1] = test system: ABUTH: Abutilon theophrasti; assay: Post-emergence herbicidal efficacy at 1280 g/ha, ABUTH; conditions: rated visually after about 3 weeks vs untreated controls, 100% = plants have died, 0% = like control plants
Description: (§1) Seeds of mono- and dicotyledonous weed plants were placed in plastic pots in sandy loam soil (doubly sown with in each case one species of mono- or dicotyledonous weed plants per pot), covered with soil and cultivated in a greenhouse under controlled growth conditions. 2 to 3 weeks after sowing, the test plants were treated at the one-leaf stage. The compounds of the invention, formulated in the form of wettable powders (WP) or as emulsion concentrates (EC), were applied to the green parts of the plants as aqueous suspension or emulsion with addition of 0.5% additive at a water application rate equivalent to 600 litres per hectare. After the test plants had been kept in the greenhouse under optimum growth conditions for about 3 weeks, the activity of the preparations was rated visually in comparison to untreated controls. For example, 100% activity=the plants have died, 0% activity=like control plants. Tables A1 to A12 below show the effects of selected compounds of the general formula (I) according to Table 1 on various harmful plants and at an application rate corresponding to 1280 g/ha, which were obtained by the trial procedure specified above.

[2] = test system: AMARE: Amaranthus retroflexus; assay: Post-emergence herbicidal efficacy at 1280 g/ha, AMARE; conditions: rated visually after about 3 weeks vs untreated controls, 100% = plants have died, 0% = like control plants
Description: as §1

[3] = test system: ECHCG: Echinochloa crus-galli; assay: Post-emergence herbicidal efficacy at 1280 g/ha, ECHCG; conditions: rated visually after about 3 weeks vs untreated controls, 100% = plants have died, 0% = like control plants
Description: as §1

KCHSC: Kochia scoparia [4] = assay: Post-emergence herbicidal efficacy at 1280 g/ha, KCHSC; conditions: visual rating about 3 weeks after treatment vs untreated controls
Description: as §1

POAAN: Poa annua [5] = assay: Post-emergence herbicidal efficacy at 1280 g/ha, POAAN; conditions: visual rating about 3 weeks after treatment vs untreated controls
Description: as §1

STEME: Stellaria media [6] = assay: Post-emergence herbicidal efficacy at 1280 g/ha, STEME; conditions: visual rating about 3 weeks after treatment vs untreated controls
Description: as §1

VERPE: Veronica persica [7] = assay: Post-emergence herbicidal efficacy at 1280 g/ha, VERPE; conditions: visual rating about 3 weeks after treatment vs untreated controls
Description: as §1

[8] = test system: AMARE: Amaranthus retroflexus; assay: Pre-emergence herbicide efficacy at 1280 g/ha, AMARE; conditions: visual scoring after about 3 weeks vs untreated controls
Source text: (§2) Seeds of mono- and dicotyledonous weed plants were placed in plastic pots in sandy loam soil (doubly sown with one species each of mono- or dicotyledonous weed plants per pot) and covered with soil. The compounds of the invention, formulated in the form of wettable powders (WP) or as emulsion concentrates (EC), were then applied to the surface of the covering soil as aqueous suspension or emulsion with addition of 0.5% additive at a water application rate of 600 litres per hectare (converted). After the treatment, the pots were placed in a greenhouse and kept under good growth conditions for the test plants. After about 3 weeks, the efficacy of the preparations was scored visually in comparison with untreated controls as percentages. For example, 100% activity=the plants have died, 0% activity=like control plants. Tables C1 to C12 below show the effects of selected compounds of the general formula (I) according to Table 1 on various harmful plants and at an application rate corresponding to 1280 g/ha, which were obtained by the trial procedure specified above.

[9] = test system: AMARE: Amaranthus retroflexus; assay: Post-emergence herbicidal efficacy at 80 g/ha, AMARE; conditions: visual rating about 3 weeks after treatment vs untreated controls
Description: Seeds of monocotyledonous and dicotyledonous weeds and crop plants were placed in sandy loam in plastic or organic planting pots, covered with soil and cultivated in a greenhouse under controlled growth conditions. 2 to 3 weeks after sowing, the test plants were treated at the one-leaf stage. The compounds of the invention, formulated in the form of wettable powders (WP) or as emulsion concentrates (EC), were then sprayed onto the green parts of the plants as aqueous suspension or emulsion with addition of 0.5% additive at a water application rate of 600 l/ha (converted). After the test plants had been kept in the greenhouse under optimum growth conditions for about 3 weeks, the activity of the preparations was rated visually in comparison to untreated controls. For example, 100% activity=the plants have died, 0% activity=like control plants. Tables B1 to B10 below show the effects of selected compounds of the general formula (I) according to Table 1 on various harmful plants and an application rate corresponding to 80 g/ha, which were obtained by the experimental procedure mentioned above.

[10] = test system: AMARE: Amaranthus retroflexus; assay: Pre-emergence herbicide efficacy at 80 g/ha, AMARE; conditions: scored visually after about 3 weeks
Source text: Seeds of monocotyledonous and dicotyledonous weed plants and crop plants were placed in plastic or organic planting pots and covered with soil. The compounds of the invention, formulated in the form of wettable powders (WP) or as emulsion concentrates (EC), were then applied to the surface of the covering soil as aqueous suspension or emulsion with addition of 0.5% additive at a water application rate equivalent to 600 l/ha. After the treatment, the pots were placed in a greenhouse and kept under good growth conditions for the test plants. After about 3 weeks, the efficacy of the preparations was scored visually in comparison with untreated controls as percentages. For example, 100% activity=the plants have died, 0% activity=like control plants. Tables D1 to D12 below show the effects of selected compounds of the general formula (I) according to Table 1 on various harmful plants and an application rate corresponding to 80 g/ha, which were obtained by the experimental procedure mentioned above.

[11] = test system: ABUTH: Abutilon theophrasti; assay: Pre-emergence herbicide efficacy at 1280 g/ha, ABUTH; conditions: visual scoring after about 3 weeks vs untreated controls
Source text: as §2

[12] = test system: DIGSA: Digitaria sanguinalis; assay: Pre-emergence herbicide efficacy at 1280 g/ha, DIGSA; conditions: visual scoring after about 3 weeks vs untreated controls
Source text: as §2

[13] = test system: ECHCG: Echinochloa crus-galli; assay: Pre-emergence herbicide efficacy at 1280 g/ha, ECHCG; conditions: visual scoring after about 3 weeks vs untreated controls
Source text: as §2

POAAN: Poa annua [14] = assay: Pre-emergence herbicide efficacy at 1280 g/ha, POAAN; conditions: visual scoring after about 3 weeks vs untreated controls
Source text: as §2

SETVI: Setaria viridis [15] = assay: Pre-emergence herbicide efficacy at 1280 g/ha, SETVI; conditions: visual scoring vs untreated controls
Source text: as §2

STEME: Stellaria media [16] = assay: Pre-emergence herbicide efficacy at 1280 g/ha, STEME; conditions: visual scoring vs untreated controls
Source text: as §2

[17] = test system: DIGSA: Digitaria sanguinalis; assay: Post-emergence herbicidal efficacy at 1280 g/ha, DIGSA; conditions: rated visually after about 3 weeks vs untreated controls, 100% = plants have died, 0% = like control plants
Description: as §1

KCHSC: Kochia scoparia [18] = assay: Pre-emergence herbicide efficacy at 1280 g/ha, KCHSC; conditions: visual scoring after about 3 weeks vs untreated controls
Source text: as §2

VERPE: Veronica persica [19] = assay: Pre-emergence herbicide efficacy at 1280 g/ha, VERPE; conditions: visual scoring vs untreated controls
Source text: as §2

SETVI: Setaria viridis [20] = assay: Post-emergence herbicidal efficacy at 1280 g/ha, SETVI; conditions: visual rating about 3 weeks after treatment vs untreated controls
Description: as §1

Compound	Post-emergence efficacy at 1280 g/ha against ABUTH in % [1]	Post-emergence efficacy at 1280 g/ha against AMARE in % [2]	Post-emergence efficacy at 1280 g/ha against ECHCG in % [3]	Post-emergence efficacy against KCHSC (KCHSC: Kochia scoparia [4])	Post-emergence efficacy against POAAN (POAAN: Poa annua [5])	Post-emergence efficacy against STEME (STEME: Stellaria media [6])	Post-emergence efficacy against VERPE (VERPE: Veronica persica [7])	Pre-emergence efficacy against AMARE [8]	Post-emergence efficacy against AMARE [9]	Pre-emergence efficacy against AMARE in % [10]	Pre-emergence efficacy against ABUTH [11]	Pre-emergence efficacy against DIGSA [12]	Pre-emergence efficacy against ECHCG [13]	Pre-emergence efficacy against POAAN (POAAN: Poa annua [14])	Pre-emergence efficacy against SETVI in % (SETVI: Setaria viridis [15])	Pre-emergence efficacy against STEME in % (STEME: Stellaria media [16])	Post-emergence efficacy at 1280 g/ha against DIGSA in % [17]	Pre-emergence efficacy against KCHSC (KCHSC: Kochia scoparia [18])	Pre-emergence efficacy against VERPE in % (VERPE: Veronica persica [19])	Post-emergence efficacy against SETVI (SETVI: Setaria viridis [20])
Fc1ccc(Sc2ccccc2Cc2ncc(Cl)cc2F)cc1 [Example 1-106]	90%	100%	90%	90%	100%	100%	100%	90%												
O=S(=O)(CCC(F)(F)F)Oc1c(F)cccc1Cc1ncc(F)cn1 [Example 1-17]									90%	80%										
O=S(=O)(CCC(F)(F)F)Oc1c(Cl)cccc1Cc1ncc(F)cn1 [Example 1-21]									90%	90%										
Fc1cccc(Cc2ncc(Cl)cn2)c1Oc1ncc(Cl)cn1 [Example 1-151]									80%	80%										
Fc1cnc(Cc2cccc(F)c2Oc2ncc(F)cn2)nc1 [Example 1-153]									90%	100%										
Fc1cc(Cl)cnc1Oc1ccccc1Cc1ccc(Cl)cn1 [Example 1-101]	90%	100%	90%		100%	90%	100%	100%			90%	100%	100%	100%	100%	100%				
FC(F)(F)CCCc1ccccc1Cc1ncc(Cl)cn1 [Example 1-1]	90%	100%		90%	90%	100%	100%	100%				100%	90%	90%	90%		90%	90%		
FC(F)c1nc(-c2ccccc2Cc2ncc(Cl)cn2)no1 [Example 1-160]									100%	100%										
N#CC(c1ncc(F)cn1)c1ccccc1Cc1ccc(F)cc1 (stereo not shown) [Example 1-81]	90%	90%	90%				90%							100%						
Fc1cnc(Cc2ccccc2Oc2ncc(Cl)cc2F)nc1 [Example 1-90]	90%	100%		100%	100%	90%	100%	100%			100%	100%	100%	100%	90%	90%	90%	100%	100%	
Cc1cccc(Cc2ncc(Cl)cn2)c1Oc1ccc(F)cc1 [Example 1-31]	100%	90%	100%		90%	90%	90%	90%				100%	100%	100%	100%					90%
Fc1ccc(Cc2ccccc2Cc2ccc(Cl)cn2)cc1 [Example 1-96]	100%	100%	90%	90%	90%	90%	100%	100%			100%	100%	90%		90%					
Fc1ccc(Oc2ccccc2Cc2ncc(Br)cn2)cc1 [Example 1-87]	100%	100%	90%	100%	100%	90%	100%	100%				100%	90%		100%					90%
Cc1nc(-c2ccccc2Cc2ncc(Cl)cn2)no1 [Example 1-159]									80%	90%										
